From patent US8435576B2, “Use of cocoa polyphenols for treating a prostate hyperplasia, a specific cocoa extract and applications” (Barry Callebaut AG, priority 2005, dated 2013)
Like-named read-outs stand apart in the source and are kept apart here.

Experiments:
22Rv1 cells = test: Cell growth and viability (neutral red / sulforhodamine B) and morphology; format: cell-based, human; conditions: for IC50: 72 h, read-out: CI50 (the source's name)
Protocol: Each product (1 to 5) was applied for 1 to 72 hours, at various concentrations. The number of cells was compared with a control, namely cells cultured in the absence of the test compound.
The human prostate carcinoma cells DU145 and 22Rv1 were supplied by the American Type Culture Collection (ATCC, Rockville, Md.). The DU145 cells originate from a cerebral metastasic site and are not sensitive to androgens. The 22Rv1 cells originate from a prostate carcinoma and are sensitive to androgens. The cells were maintained in the form of a monolayer culture according to the usual techniques, in […] flasks (Corning), at 37° C., in an atmosphere containing 5% CO2 and at 95% humidity, in an RPMI-1640 medium free of phenol red and supplemented with 10% of heat-inactivated fetal calf serum and 1% of L-glutamine.
Five products were tested for this study and were stored protected from light, at +4° C. The β-sitosterol (product 1), obtained from Sigma Chemicals, was first dissolved in absolute ethanol, up to a final concentration of 24.1 mM. Product 2, supplied by Barry Callebaut, France, is a defatted cocoa extract containing 35.5% polyphenols and 0.081% β-sitosterol. Product 3 was reconstituted from products 1 and 2 and contained 35.5% polyphenols and 0.72% β-sitosterol. Products 4 and 5 were manufactured by Barry Callebaut, France. The composition of product 4 is unknown, and contains no β-sitosterol. Product 5 contains 35.27% polyphenols and 0.72% β-sitosterol. Products 2, 3, 4 and 5 were first dissolved in whole medium. As regards products 2, 4 and 5, the total polyphenols of the cocoa extracts originate from different countries.
Just before use, the final concentrations of products (table 1) used are prepared for the various experiments by means of stock solutions, by diluting the stock solution in whole medium. 64.2 μM of β-sitosterol is the maximum dose used in this solubility range and in the physiological range (4 to 70 μM). The absolute ethanol is at a constant concentration of 0.26% in the solvent-based control, in the negative control and in the 8 test concentrations. The ratios of the β-sitosterol and of the polyphenols for products 2, 3 and 5 are as follows: • Product 2:2:1000 • Product 3:2:100 • Product 5:2:100
The cells were inoculated on 96-well plates at an initial density of 15 000 cells/well for DU145, at an initial density of 30 000 cells/well for 22Rv1 and at an initial density of 25 000 cells/well for RWEP-1, with 200 μL of medium per well. The cell density was optimized as a function of the time required to double the population of cells, in order to obtain a significant measurement of the Optical Density (OD) and to be able to compare the various cells lines. After 24 hours, in order to ensure uniform fixing of the cells from the start of the experiments, the products were added to the cell cultures at various concentrations and at various times. After incubation with the products, the growth and viability of the cells was measured using neutral red (NR) and sulforhodamine B (SRB) combined (In Cytotox, Vandoeuvre, France). The absorption of the vital stain NR was used by the lysosomes/endosomes and by the vacuoles of the live cells as a quantitative indication of the number and viability of the cells after treatment with a chemical test. The anionic stain SRB made it possible to quantify the viable cells via measurement of the protein content of the cells.
The cytotoxicity was evaluated 1, 3, 6, 24, 48 and 72 hours after incubating the 22Rv1, RWEP-1 and DU145 cells with the products. The cells were washed with 200 μl of washing solution in order to remove the culture medium supplemented with the products. 200 μL of neutral red base medium was added and incubated with the cells at 37° C. for 3 hours. The neutral red base medium was then removed and the cells were washed twice with phosphate-buffered physiological saline (PBS). The cells were fixed for 1 minute with 200 μL of fixing solution. […]

[1] = tested on: healthy human prostate epithelial cells (RWEP-1); test: Cell proliferation test, neutral red release method, media M1-M3; format: cell-based; conditions: RWEP-1, media M1, M2 or M3, 24 hours
Protocol: (§1) • Healthy human prostate epithelial cells (RWEP-1, ATCC No. CRL-11609) • Human prostate carcinoma (22Rv1 ATCC No. CRL-2505) Culture: • 37° C., 5% CO2, 95% humidity
(§2) • Keratinocyte-serum free medium (KSFM) (Invitrogen, 17005-042) • Epidermal Growth Factor, 5 ng/ml (Invitrogen, 10450-013) • Bovine pituitary extract, 0.05 mg/ml (Invitrogen, 13028-014) • Penicillin 50 IU/ml-streptomycin 50 μg/ml 10 (v/v, Invitrogen 15070-063) Medium M2=Medium recommended for tumor cells (22Rv1): • RPMI 1640 medium (Invitrogen, 31870-025) • Decomplemented fetal calf serum, 10% (v/v Invitrogen 10270-098) • L-Glutamine, 1% (v/v Invitrogen 25030-024) • Penicillin 50 IU/ml-streptomycin 50 μg/ml 1 (v/v, • Invitrogen 15070-063) Medium M3=Mixed medium: • Whole keratinocyte-serum free medium, 50% (v/v) • Whole RPMI 1640 medium, 50% (v/v) […]
(§3) After 24 hours of growth, the healthy and tumoral cell lines were incubated in the presence of β-sitosterol (reference product) at 8 concentrations (see paragraph b) above) or of CPE at 8 concentrations (see paragraph b) above). […] The amount of stain incorporated into the cells is measured by spectro-photometric reading at 540 nm and is directly pro-portional to the number of live cells. The results were expressed as a percentage of inhibition relative to the untreated control.

[2] = tested on: human prostate carcinoma (22Rv1); test: as above; format: cell-based; conditions: 22Rv1, media M1, M2 or M3, 24 hours
Protocol: as §1, §2, §3

CC[C@H](CC[C@@H](C)[C@H]1CC[C@H]2[C@@H]3CC=C4C[C@@H](O)CC[C@]4(C)[C@H]3CC[C@]12C)C(C)C [β-sitosterol]
Inhibition of lysosomial activity or protein synthesis (22Rv1 cells; 22Rv1, 1, 3 and 6 hours of treatment): did not inhibit the lysosomial activity or protein synthesis | Morphological alterations (22Rv1 cells; 22Rv1, maximum concentration, up to 48 hours): No significant difference in terms of density and morphology | max. inhibition (22Rv1 cells; 24 h, 22RV1, NR): 49% | max. inhibition (22Rv1 cells; 24 h, 22RV1, SRB): 49% | max. inhibition (22Rv1 cells; 48 h, 22RV1, NR): 36% | max. inhibition (22Rv1 cells; 48 h, 22RV1, SRB): 47% | IC50 (22Rv1 cells; 22RV1, NR): 17.8 µM | IC50 (22Rv1 cells; 22RV1, SRB): 34 µM | Inhibition of proliferation [1]: weak inhibition of proliferation | Inhibition of proliferation [2]: weak inhibition of proliferation
